Experimental data as given in patent US11344554B2, “Animal and human anti-malarial agents” (Celgene Corporation, priority 2016, dated 2022).

Test system: Plasmodium falciparum
Assay: Plasmodium falciparum in vitro [3H]-hypoxanthine parasite growth inhibition assay
Assay type: cell-based
Conditions: Erythrocyte, P. falciparum asexual blood stage parasites in human erythrocytes, [3H]-hypoxanthine uptake, read-out: Act Class (IC50 activity level)

CC(C)(C)Nc1ncc2nc(Nc3ccc(OC(F)(F)F)cc3)n(C3CCNCC3)c2n1 [Cpd 21, N2-tert-butyl-9-(piperidin-4-yl)-N8-(4-(trifluoromethoxy)phenyl)-9H-purine-2,8-diamine]
IC50: 100 to 200 nM

CC(C)(C)Nc1ncc2nc(Nc3ccc(C(F)(F)F)c(Cl)c3)n(C3CCNCC3)c2n1 [Cpd 82, N2-tert-butyl-N8-(3-chloro-4-(trifluoromethyl)phenyl)-9-(piperidin-4-yl)-9H-purine-2,8-diamine]
IC50: 200 to 500 nM

CC1(Nc2ncc3nc(Nc4ccc(C(F)(F)F)c(Cl)c4)n(C4CCNCC4)c3n2)CC1 [Cpd 93, N8-(3-chloro-4-(trifluoromethyl)phenyl)-N2-(1-methylcyclopropyl)-9-(piperidin-4-yl)-9H-purine-2,8-diamine]
IC50: 200 to 500 nM

CC(C)(C)Nc1ncc2nc(Nc3cc(C(F)(F)F)cc(C(F)(F)F)c3)n(C3CCNCC3)c2n1 [Cpd 49, N8-(3,5-bis(trifluoromethyl)phenyl)-N2-tert-butyl-9-(piperidin-4-yl)-9H-purine-2,8-diamine]
IC50: < 100 nM

FC(F)(F)c1cc(Cl)cc(Nc2nc3cnc(NC4CCC4)nc3n2C2CCNCC2)c1 [Cpd 52, N8-(3-chloro-5-(trifluoromethyl)phenyl)-N2-cyclobutyl-9-(piperidin-4-yl)-9H-purine-2,8-diamine]
IC50: < 100 nM

FC(F)(F)c1cc(Cl)cc(Nc2nc3cnc(NC4CC4)nc3n2C2CCNCC2)c1 [Cpd 40, N8-(3-chloro-5-(trifluoromethyl)phenyl)-N2-cyclopropyl-9-(piperidin-4-yl)-9H-purine-2,8-diamine]
IC50: < 100 nM
